Reference: patent publication US20230218566A1, “Composition and Method for Treating Chronic Pain” (Zelira Therapeutics Operations Pty Ltd, priority 2020, published 2023)

Test: Pharmacokinetics of THC and CBD after oral MC formulation (Example 3)
Settings: for Tmax / AUC(0-t) / Cmax / half-life: human, plasma; for dose response of Cmax and AUC0-8 with increasing doses: oral doses 2.5 to 12.5 mg
[1] = high fat meal 30 minutes before 2.5 mg dose versus fasted
[2] = oral, delay of Tmax by high fat meal, high fat meal 30 minutes before 2.5 mg dose versus fasted
[3] = po, AUC0-8, 2.5 mg: single oral dose 2.5 mg THC/2.5 mg CBD after 12 hour fast (day 1)
[4] = po, AUC0-8, 5 mg: single oral dose 5 mg THC/5 mg CBD
[5] = po, AUC0-8, 7.5 mg: single oral dose 7.5 mg THC/7.5 mg CBD
[6] = po, 2.5 mg fed: single oral dose 2.5 mg THC/2.5 mg CBD 30 minutes after high fat meal (day 8)
[7] = po, 2.5 mg: single oral dose 2.5 mg THC/2.5 mg CBD after 12 hour fast (day 1)
[8] = po, 5 mg: single oral dose 5 mg THC/5 mg CBD
[9] = po, 7.5 mg: single oral dose 7.5 mg THC/7.5 mg CBD
[10] = po, Tmax, 2.5 mg fed: single oral dose 2.5 mg THC/2.5 mg CBD 30 minutes after high fat meal (day 8)
[11] = po, Tmax, 2.5 mg: single oral dose 2.5 mg THC/2.5 mg CBD after 12 hour fast (day 1)
[12] = po, Tmax, 5 mg: single oral dose 5 mg THC/5 mg CBD
[13] = po, Tmax, 7.5 mg: single oral dose 7.5 mg THC/7.5 mg CBD
[14] = po, t½ (did not change with increasing dose), across doses 2.5 to 12.5 mg
[15] = po, t½, 2.5 mg fed: single oral dose 2.5 mg THC/2.5 mg CBD 30 minutes after high fat meal (day 8)
[16] = po, t½, 2.5 mg: single oral dose 2.5 mg THC/2.5 mg CBD after 12 hour fast (day 1)
[17] = po, t½, 5 mg: single oral dose 5 mg THC/5 mg CBD
[18] = po, t½, 7.5 mg: single oral dose 7.5 mg THC/7.5 mg CBD

In the case of `C=C(C)[C@@H]1CCC(C)=C[C@H]1c1c(O)cc(CCCCC)cc1O` [CBD, cannabidiol], the “effect of high fat meal on Cmax and AUC0-8” value [1] is reported as “significantly increased”, the Tmax [2] is reported as ≥ 1 h and the AUC(0-t) (po, AUC0-8, 2.5 mg fed: single oral dose 2.5 mg THC/2.5 mg CBD 30 minutes after high fat meal (day 8)) is reported as 3.67 ng·h/mL. For the same compound, the AUC(0-t) [3] was 1.76 ± 0.84 ng·h/mL, the AUC(0-t) [4] was 5.09 ± 1.8 ng·h/mL and the AUC(0-t) [5] was 7.47 ± 2.95 ng·h/mL. For the same compound, the Cmax [6] was 0.99 ± 0.45 ng/mL, the Cmax [7] was 0.62 ± 0.19 ng/mL and the Cmax [8] was 1.51 ± 0.55 ng/mL. For the same compound, the Cmax [9] was 2.26 ± 0.95 ng/mL, the Tmax [10] was 2.78 h and the Tmax [11] was 1.83 ± 1 h. The Tmax [12] was 1.75 ± 1.04 h, the Tmax [13] was 1.64 ± 1.18 h and the half-life [14] was 216 min. It also gave a half-life [15] of 177 ± 39.6 min, a half-life [16] of 255 ± 32.4 min and a half-life [17] of 272 ± 145 min. For the same compound, the half-life [18] was 208 ± 51.6 min and the “dose response of Cmax and AUC0-8 with increasing doses” value was “linear dose response relationship”.
With `CCCCCc1cc(O)c2c(c1)OC(C)(C)[C@@H]1CCC(C)=C[C@@H]21` [THC, Δ^9-tetrahydrocannabinol] the AUC0-8 (2.5 mg fed: single oral dose 2.5 mg THC/2.5 mg CBD 30 minutes after high fat meal (day 8)) was 5.86 ± 2.07 (9) ng/mL*h, the “effect of high fat meal on Cmax and AUC0-8” value [1] was “significantly increased” and the Tmax [2] was ≥ 1 h. The AUC(0-t) [3] was 2 ± 1.38 ng·h/mL, the AUC(0-t) [4] was 6.04 ± 2.07 ng·h/mL and the AUC(0-t) [5] was 10.6 ± 3.84 ng·h/mL. It also gave a Cmax [6] of 1.52 ± 0.55 ng/mL, a Cmax [7] of 0.83 ± 0.29 ng/mL and a Cmax [8] of 2.56 ± 1.7 ng/mL. For the same compound, the Cmax [9] was 3.84 ± 1.62 ng/mL, the Tmax [10] was 2.78 ± 1.2 h and the Tmax [11] was 1.67 ± 1.09 h. It also gave a Tmax [12] of 2.06 ± 1.32 h, a Tmax [13] of 1.36 ± 0.63 h and a half-life [14] of 150 min. The half-life [15] was 158 ± 25.8 min, the half-life [16] was 156 ± 31.8 min and the half-life [17] was 148 ± 52.8 min. The half-life [18] was 145 ± 37.2 min and the “dose response of Cmax and AUC0-8 with increasing doses” value was “linear dose response relationship”.
